Measured values from patent US20210122730A1, “GLUCOCORTICOID RECEPTOR MODULATORS” (ORIC Pharmaceuticals, Inc., priority 2017, published 2021).

Assays:
[1] = molecular target: T1, CYP2C8 (Homo sapiens, UniProt P10632); test: CYP Inhibition Assay (CYP2C8, human liver microsomes, paclitaxel substrate); format: in vitro ADME; conditions: pH 7.4; pooled human liver microsomes 0.1 mg/mL, probe substrate paclitaxel
T1 construct: Pooled human microsomes were obtained from Sekisui XenoTech, KS; tissue Sekisui XenoTech, KS; host or cells: pooled human liver microsomes
T1 sequence (P10632 1-490): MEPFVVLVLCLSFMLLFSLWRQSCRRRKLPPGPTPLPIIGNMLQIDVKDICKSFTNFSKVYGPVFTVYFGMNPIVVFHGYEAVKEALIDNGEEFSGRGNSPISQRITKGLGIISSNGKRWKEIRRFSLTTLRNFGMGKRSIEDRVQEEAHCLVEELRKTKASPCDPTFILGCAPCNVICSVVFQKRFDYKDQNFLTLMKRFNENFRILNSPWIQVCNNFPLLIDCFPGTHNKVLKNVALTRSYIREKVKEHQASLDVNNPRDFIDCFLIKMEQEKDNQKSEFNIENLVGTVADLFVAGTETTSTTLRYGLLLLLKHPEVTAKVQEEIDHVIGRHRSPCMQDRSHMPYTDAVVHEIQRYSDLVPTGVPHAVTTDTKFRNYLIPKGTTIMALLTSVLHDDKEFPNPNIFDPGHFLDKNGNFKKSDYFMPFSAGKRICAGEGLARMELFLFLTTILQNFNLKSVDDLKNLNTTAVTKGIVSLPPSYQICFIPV
Method in brief: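 Pooled human liver microsomes (0.1 mg/mL) in 50 mM potassium phosphate pH 7.4 with compound, started with 1 mM NADPH, 5 min at 37° C, duplicate.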

[2] = molecular target: T2, GR (Homo sapiens, UniProt P04150); test: In Vitro GR Luciferase Reporter Assay (antagonist mode, CHO-K1-GR-MMTV-Luc reporter cells); format: cell-based; conditions: antagonist mode, 10 nM Dexamethasone
T2 construct: expressed in transfected cells; host or cells: CHO-K1
T2 sequence (P04150 1-777): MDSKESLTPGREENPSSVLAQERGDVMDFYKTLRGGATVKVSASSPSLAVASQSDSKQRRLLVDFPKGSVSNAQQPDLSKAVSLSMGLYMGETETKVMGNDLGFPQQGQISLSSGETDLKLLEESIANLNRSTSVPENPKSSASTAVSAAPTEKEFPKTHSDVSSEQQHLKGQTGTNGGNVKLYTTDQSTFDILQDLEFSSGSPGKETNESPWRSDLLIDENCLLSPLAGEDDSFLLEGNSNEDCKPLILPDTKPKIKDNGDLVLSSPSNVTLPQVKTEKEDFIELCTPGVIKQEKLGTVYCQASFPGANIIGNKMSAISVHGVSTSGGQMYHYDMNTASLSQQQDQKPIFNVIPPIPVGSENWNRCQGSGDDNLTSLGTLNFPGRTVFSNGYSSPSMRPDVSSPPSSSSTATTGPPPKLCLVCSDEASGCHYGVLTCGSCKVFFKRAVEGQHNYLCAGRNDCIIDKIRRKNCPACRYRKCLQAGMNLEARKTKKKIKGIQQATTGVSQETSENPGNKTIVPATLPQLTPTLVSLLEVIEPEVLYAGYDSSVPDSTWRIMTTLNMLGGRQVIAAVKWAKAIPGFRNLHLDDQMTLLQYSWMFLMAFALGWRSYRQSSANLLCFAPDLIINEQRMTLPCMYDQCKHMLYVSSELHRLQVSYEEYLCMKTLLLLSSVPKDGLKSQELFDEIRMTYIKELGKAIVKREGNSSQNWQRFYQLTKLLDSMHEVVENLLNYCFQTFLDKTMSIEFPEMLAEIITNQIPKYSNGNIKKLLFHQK
Method in brief: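 CHO-K1-GR-MMTV-Luc cells in phenol red-free DMEM with 10% CSS, stimulated with 10 nM dexamethasone (final) and treated with 8-point 1:5 compound dilutions for about 18-24 h at 37° C. Luciferase measured by OneGlo luminescence; IC50 derived for inhibition of GR activity.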

SMILES	inhibition at 5 min [1] [%]	IC50 [2] [nM]
Cn1cnc(S(=O)(=O)N(C2CC2)[C@H]2CCC3=Cc4c(cnn4-c4ccc(F)cc4)C[C@]3(C(=O)c3ncc(C(F)(F)F)s3)C2)n1 [Example 305, N-cyclopropyl-N-((4aS,6S)-1-(4-fluorophenyl)-4a-(5-(trifluoromethyl)thiazole-2-carbonyl)-4,4a,5,6,7,8-hexahydro-1H-benzo[f]indazol-6-yl)-1-methyl-1H-1,2,4-triazole-3-sulfonamide]	25 to 50	≤ 100
Cn1cnc(S(=O)(=O)N(C2CC2)[C@H]2CCC3=Cc4c(cnn4-c4ccc(F)cc4)C[C@]3(C(=O)c3cc(C(F)(F)F)ccn3)C2)n1 [Example 306, N-cyclopropyl-N-((4aS,6S)-1-(4-fluorophenyl)-4a-(4-(trifluoromethyl)picolinoyl)-4,4a,5,6,7,8-hexahydro-1H-benzo[f]indazol-6-yl)-1-methyl-1H-1,2,4-triazole-3-sulfonamide]	≤ 25	≤ 100
